Experimental data published in patent US20060127967A1, “In vitro test for studying compound predicting pharmacologic and/or harmacokinetic and/or pharmacodynamic parameters of a compound” (priority 2002, published 2006).
Structures can show the parent of a compound that is named as a salt.

Experiments:
[1] = tested on: Tetrahymena thermophila; experiment: Tetrahymena thermophila cell area, computerized morphometric/image analysis bioassay; assay type: cell-based; settings: 6 hours exposure, various concentrations, at least 100 cells per sample
Description: Tetrahymena thermophila was grown axenically at 34 ?C in proteosepeptone yeast salts (PPYS) complex medium. Test cultures were prepared by inoculating the protozoa from a stock culture into PPYS to produce initial culture of ˜5000 cell/ml. The cell cultures were then grown for 24 hours at 34 ?C. In the beginning of the experiment the culture was transferred into 3 ml test tubes and exposed to the various concentrations of the tested material. Samples were withdrawn 6 hours following the exposure to the tested material. The samples fixed with formaldehyde solution were placed on the hemocytometer, observed under microscope and the area of tetrahymena was evaluated by computerized morphometric system/image analysis program. For each sample at least 100 cells were evaluated.

[2] = Permeation through Integra bi-layer membrane and human skin in Valia-Chien diffusion cells; assay type: in vitro ADME; settings: aqueous solution pH 7.2, receiver Tris buffer pH 7.2, 8 hours, permeation area 0.64 cm^2, HCl
Description: Permeation studies with aqueous solution of Propranolol HCl (pH 7.2) through Integra and human skin were carried out in Valia-Chien diffusion cells. The effective permeation area was 0.64 cm^2. The receiver compartment contained Tris buffer (pH 7.2) and the experiment lasted for 8 hours. The samples were withdrawn at 0, 1, 2, 4, 6 and 8 hours and the quantity of propranolol HCl permeated through the membrane was analyzed by validated HPLC method.

Row | SMILES | change in Tetrahymena thermophila cell area with increasing drug concentration in the medium [1] | permeation constant (Kp) through Integra as compared to human skin [2] | permeation constant (Kp) through Integra as compared to human skin ([2]; listed as propranolol)
1 | C=CCc1ccccc1OCC(O)CNC(C)C (stereo not shown) [Alprenolol hydrochloride] | decrease in the cell area | – | –
2 | CC(C)NCC(O)COc1cccc2ccccc12 (stereo not shown) [Propranolol HCl] | – | close similarity | similar
3 | O=C([O-])c1ccccc1O.[Na+] [sodium salicylate] | decrease in cell area | – | –
